Results taken from US6596772B1, “Phosphate mimics and methods of treatment using phosphatase inhibitors” (Sugen, Inc., priority 1999, dated 2003).

Tests used:
Type in all cases: biochemical
[1] = target: T1, PTP ALPHA (Homo sapiens, UniProt P18433); test: PTP IC50 assay, pNPP or FDP as substrate; details: 25° C.
T1 construct: RTPα intracellular domain construct was obtained; made in house; host or cells: E. coli BL-21 (pGEX 3X)
Protocol: (§1) The following in vitro assay procedure is preferred to determine the level of activity and effect of the different compounds of the present invention on one or more of the PTPs. Similar assays can be designed along the same lines for any PTP using techniques well known in the art.
(§2) The catalytic assays described herein are performed in a 96-well format. The general procedure begins with the determination of PTP optimal pH using a three-component buffer system that minimizes ionic strength variations across a wide range of buffer pH. Next, the Michaelis-Menten constant, or Km, is determined for each specific substrate-PTP system. This Km value is subsequently used as the substrate reaction concentration for compound screening. Finally, the test PTP is exposed to varying concentrations of compound for fifteen minutes and allowed to react with substrate for ten minutes. The results are plotted as percent inhibition versus compound concentration and the IC50 interpolated from the plot.
(§3) All assays were performed using pNPP or FDP as substrate. The optimum pH was determined for each PTP used.
(§4) PTPase activity was assayed at 25° C. in a 100-μl reaction mixture containing an appropriate concentration of pNPP or FDP as substrate. The reaction was initiated by addition of the PTP and quenched after 10 min by addition of 50 μl of IN NaOH. The non-enzymatic hydrolysis of the substrate was corrected by measuring the control without the addition of the enzyme. The amount of p-nitrophenol produced was determined from the absorbance at 410 nm. To determine the kinetic parameter, Km, the initial velocities were measured at various substrate concentrations and the data were fitted to the Michaelis equation where velocity=(Vmax*[S])/(Km+[S]), and [S]=substrate reaction concentration.
(§5) The effect of the compounds on PTP was evaluated at 25° C. using pNPP or FDP as substrate. PTP was pre-incubated for fifteen minutes with various concentrations of compound. Substrate was then added at a fixed concentration (usually equal to the Km previously calculated). After 10 minutes, NaOH was added to stop the reaction. The hydrolysis of pNPP was followed at 410 nm on the Biotek Powerwave 200 microplate scanning spectrophotometer. The percent inhibition was calculated as follows: Percent Inhibition=[(control signal−compound signal)/control signal] ×100%. The IC50 was then determined by interpolation of a percent inhibition versus compound concentration plot.
(§6) Plasmids designed for bacterial GST-PTP fusion protein expression were derived by insertion of PCR-generated human PTP fragments into pGEX vectors (Pharmacia Biotech). Several of these constructs were then used to subclone phosphatases into pFastBac-1for expression in Sf-9 insect cells. Oligonucleotides used for the initial amplification of PTP genes are shown below. The cDNAs were prepared using the Gilbo BRL superscript preamplification system on RNAs purchased from Clontech.
RTPα intracellular domain construct was obtained, Schlessinger et al., U.S. Pat. No. 5,888,794, the contents of which are hereby incorporated in their entirety into the present application. The RTPα fragment was cloned into pGEX 3× using the following procedure. The portion from EclX I/Xma III/Eag I (N-terminus blunted by Klenow) to Eco RV was cloned into the Sma I site. The EclX I site is approximately 15 residues downstream of the transmembrane domain.

[2] = target: T2, PTP ZETA (Homo sapiens, UniProt P23471); test: PTP IC50 assay, pNPP or FDP as substrate; details: 25° C.
T2 construct: made in house; host or cells: E. coli BL-21 (pGEX 6P-1)
T2 sequence (P23471 1667-2028 limits assumed): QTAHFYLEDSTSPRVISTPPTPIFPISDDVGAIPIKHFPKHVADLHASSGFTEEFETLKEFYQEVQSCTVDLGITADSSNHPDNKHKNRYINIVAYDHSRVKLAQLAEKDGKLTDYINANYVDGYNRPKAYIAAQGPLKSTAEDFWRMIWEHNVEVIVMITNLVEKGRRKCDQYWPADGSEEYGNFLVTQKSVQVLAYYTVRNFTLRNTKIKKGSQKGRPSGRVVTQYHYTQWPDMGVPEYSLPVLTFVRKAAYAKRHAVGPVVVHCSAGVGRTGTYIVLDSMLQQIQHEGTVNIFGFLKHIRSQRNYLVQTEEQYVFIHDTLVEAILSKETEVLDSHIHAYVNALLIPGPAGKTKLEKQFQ
Protocol: as §1, §2, §3, §4, §5, §6
The PTP Zeta cDNA was amplified from human placenta single strand cDNA (Clontech RNA) using the following oligonucleotides 5′oligo: 5′-[…]-3′ (SEQ ID NO: 10) 3′oligo: 5′-[…]-3′ (SEQ ID NO: 11) and subsequently ligated into pGEX 6P-1 Eco RI/Xho I sites.

[3] = target: T3, PTP MU (Homo sapiens, UniProt P28827); test: PTP IC50 assay, pNPP or FDP as substrate; details: pNPP or FDP as substrate, 25° C.; read-out: PTP IC50 Mu
T3 construct: made in house; host or cells: E. coli BL-21 (pGEX 6P-1)
T3 sequence (P28827 831-1186 limits assumed): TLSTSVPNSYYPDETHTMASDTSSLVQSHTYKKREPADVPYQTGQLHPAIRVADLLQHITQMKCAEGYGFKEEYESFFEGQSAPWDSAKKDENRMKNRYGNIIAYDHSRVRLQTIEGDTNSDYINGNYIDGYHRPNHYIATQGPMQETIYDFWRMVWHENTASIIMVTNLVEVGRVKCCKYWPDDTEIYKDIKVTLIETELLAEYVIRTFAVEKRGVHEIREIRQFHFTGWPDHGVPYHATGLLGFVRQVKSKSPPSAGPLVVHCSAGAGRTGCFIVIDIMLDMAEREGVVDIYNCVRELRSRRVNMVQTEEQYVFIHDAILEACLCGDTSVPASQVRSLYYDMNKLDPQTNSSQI
Protocol: as §1, §2, §3, §4, §5, §6
The PTP Mu cDNA was amplified from a human lung cDNA library (Clontech) using the following oligonucleotides; 5′oligo: 5′-[…]-3′ (SEQ ID NO: 18) 3′oligo: 5′-[…]-3′ (SEQ ID NO: 19) It was subsequently ligated into the Eco RI/Xho I sites of pGEX 6P-1.

[4] = target: T4, PTP DEP1 (Homo sapiens, UniProt Q12913); test: PTP IC50 assay, pNPP or FDP as substrate; details: 25° C.
T4 construct: GST-fusion proteins encompassing the entire cytoplasmic domain was done by PCR; made in house; host or cells: E. coli BL-21 (pGEX 2T)
T4 sequence (Q12913 997-1337 limits assumed): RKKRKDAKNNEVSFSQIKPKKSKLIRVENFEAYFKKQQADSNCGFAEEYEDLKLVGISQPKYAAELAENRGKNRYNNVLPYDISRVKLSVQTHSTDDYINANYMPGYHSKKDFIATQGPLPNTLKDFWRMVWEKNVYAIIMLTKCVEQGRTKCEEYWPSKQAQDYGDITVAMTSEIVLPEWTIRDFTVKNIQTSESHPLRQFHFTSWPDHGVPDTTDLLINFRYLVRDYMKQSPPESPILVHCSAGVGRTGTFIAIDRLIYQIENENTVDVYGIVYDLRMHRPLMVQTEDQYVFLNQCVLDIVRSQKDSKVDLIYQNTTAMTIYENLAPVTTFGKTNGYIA
Protocol: as §1, §2, §3, §4, §5, §6
The full length DEP1 cDNA was isolated from a human mammary cDNA library (Clontech). The construction of GST-fusion proteins encompassing the entire cytoplasmic domain was done by PCR using the following oligos; 5′oligo: 5′-[…]-3′ (SEQ ID NO: 20) 3′oligo: 5′-[…]-3′ (SEQ ID NO: 21) It was subsequently ligated into the Eco RI/Bam H1 sites of pGEX 2T.

[5] = target: T5, PTP PEST (Homo sapiens, UniProt Q05209); test: PTP IC50 assay, pNPP or FDP as substrate; details: 25° C.
T5 construct: made in house; host or cells: E. coli BL-21 (pGEX 6P-1)
T5 sequence (Q05209 1-343 limits assumed): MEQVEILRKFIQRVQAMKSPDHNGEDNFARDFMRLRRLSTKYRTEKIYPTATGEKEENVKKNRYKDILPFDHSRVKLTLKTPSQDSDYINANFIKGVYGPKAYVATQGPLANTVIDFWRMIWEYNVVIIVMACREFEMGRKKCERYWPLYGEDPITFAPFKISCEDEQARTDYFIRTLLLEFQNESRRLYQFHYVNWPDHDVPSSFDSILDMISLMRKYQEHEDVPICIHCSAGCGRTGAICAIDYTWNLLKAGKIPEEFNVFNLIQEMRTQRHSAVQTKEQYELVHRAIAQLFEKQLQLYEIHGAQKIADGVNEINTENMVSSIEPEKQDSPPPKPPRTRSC
Protocol: as §1, §2, §3, §4, §5, §6
The PTP PEST CDNA was amplified from an HeLa cDNA library (Clonetech RNA) using the following oligonucleotides: 5′oligo: 5′-[…]-3′ (SEQ ID NO: 14) 3′oligo: 5′-[…]-3′ (SEQ ID NO: 15) It was subsequently ligated into the Eco RI/Xho I sites of pGEX 6P-1.

[6] = target: T6, PTP SHP2 (Homo sapiens, UniProt Q06124); test: PTP IC50 assay, fluorescent substrate DiFMUP; details: DiFMUP as substrate, 25° C.; read-out: PTP IC50 SHP2
T6 construct: The catalytic domain was amplified using the following oligonucleotides; made in house; host or cells: Sf-9 insect cells (pFastBac-G2T)
T6 sequence (Q06124 247-517 limits assumed): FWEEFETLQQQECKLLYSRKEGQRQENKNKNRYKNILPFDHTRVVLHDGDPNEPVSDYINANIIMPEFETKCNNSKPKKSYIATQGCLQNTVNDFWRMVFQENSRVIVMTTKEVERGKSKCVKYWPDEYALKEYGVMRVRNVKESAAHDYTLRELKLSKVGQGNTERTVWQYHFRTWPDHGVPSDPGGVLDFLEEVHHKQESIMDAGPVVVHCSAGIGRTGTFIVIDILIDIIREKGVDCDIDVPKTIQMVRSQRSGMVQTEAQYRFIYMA

[7] = target: T7, PTP 1B (Homo sapiens, UniProt P18031); test: PTP IC50 assay, fluorescent substrate DiFMUP; details: DiFMUP as substrate, 25° C.; read-out: PTP IC50 1B
T7 construct: made in house; host or cells: Sf-9 insect cells (pFastBac-G2T)
T7 sequence (P18031 1-435): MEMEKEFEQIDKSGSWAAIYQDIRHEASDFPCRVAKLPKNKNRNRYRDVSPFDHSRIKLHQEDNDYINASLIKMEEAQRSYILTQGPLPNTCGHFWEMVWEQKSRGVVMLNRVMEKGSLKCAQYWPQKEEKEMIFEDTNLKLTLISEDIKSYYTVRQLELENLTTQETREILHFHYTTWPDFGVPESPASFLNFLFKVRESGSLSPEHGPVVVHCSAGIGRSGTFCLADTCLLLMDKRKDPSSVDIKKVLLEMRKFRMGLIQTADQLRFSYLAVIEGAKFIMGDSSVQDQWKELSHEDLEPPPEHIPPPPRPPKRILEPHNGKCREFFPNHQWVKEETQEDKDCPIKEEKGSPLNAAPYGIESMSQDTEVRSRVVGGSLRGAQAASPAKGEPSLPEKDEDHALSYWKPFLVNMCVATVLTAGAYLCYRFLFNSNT

[8] = target: T8, PTP EPSILON (Homo sapiens, UniProt P23469); test: PTP IC50 assay, fluorescent substrate DiFMUP; details: DiFMUP as substrate, 25° C.; read-out: PTP IC50 Epilson
T8 construct: made in house; host or cells: Sf-9 insect cells (pFastBac-G2T); a pGEX 6P-1 construct also existed
T8 sequence (P23469 80-393 limits assumed): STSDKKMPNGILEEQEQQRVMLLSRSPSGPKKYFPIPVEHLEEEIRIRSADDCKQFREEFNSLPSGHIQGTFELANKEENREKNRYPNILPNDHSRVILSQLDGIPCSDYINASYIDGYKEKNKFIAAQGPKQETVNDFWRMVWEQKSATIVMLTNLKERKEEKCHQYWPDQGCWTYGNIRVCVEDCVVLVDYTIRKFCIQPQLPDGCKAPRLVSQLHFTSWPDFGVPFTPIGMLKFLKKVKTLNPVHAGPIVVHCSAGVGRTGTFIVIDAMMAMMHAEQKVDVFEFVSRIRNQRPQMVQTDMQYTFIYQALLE

SMILES | IC50 [1] [µM] | IC50 [2] [µM] | IC50 [3] [µM] | IC50 [4] [µM] | IC50 [5] [µM] | IC50 [6] [µM] | IC50 [7] [µM] | IC50 [8] [µM]
O=S(=O)(c1ccc(SSc2ccc(S(=O)(=O)C(F)(F)F)cc2)cc1)C(F)(F)F [Example 7, Bis (4-trifluoromethylsulfonylphenyl) disulfide] | > 100 | > 100 | > 100 | 41 | 22 |  |  | 
CN(Cc1ccc2cc(C(=O)Nc3cccc(C(=O)O)c3)ccc2c1)S(=O)(=O)C(F)(F)F [Example 93, 3-({6-[(Methyl-trifluoromethanesulfonyl-amino)-methyl]-naphthalene-2-carbonyl}-amino)-benzoic acid] |  |  |  |  |  | 15.8 | 15.9 | 7.4
CCOC(=O)c1cc2cc(NS(=O)(=O)C(F)(F)F)ccc2n1CC(=O)OC(C)(C)C [Example 94, 1-tert-Butoxycarbonylmethyl-5-trifluoromethanesulfonylamino-1H-indole-2-carboxylic acid ethyl ester] |  |  |  |  |  | 1.5 | 12 | 4.2
CCOC(=O)c1cc2cc(NS(=O)(=O)C(F)(F)F)ccc2n1CC(=O)O [Example 95, 1-Carboxymethyl-5-trifluoromethanesulfonylamino-1H-indole-2-carboxylic acid ethyl ester] |  |  |  |  |  | > 20 | > 100 | > 100
CC(C)(C)OC(=O)Cn1c(C(=O)O)cc2cc(NS(=O)(=O)C(F)(F)F)ccc21 [Example 96, 1-tert-Butoxycarbonylmethyl-5-trifluoromethanesulfonylamino-1H-indole-2-carboxylic acid] |  |  |  |  |  | 9.1 | 34.7 | 31.2
O=C(O)Cn1c(C(=O)O)cc2cc(NS(=O)(=O)C(F)(F)F)ccc21 [Example 97, 1-Carboxymethyl-5-trifluoromethanesulfonylamino-1H-indole-2-carboxylic acid] |  |  |  |  |  | 6.1 | 44.2 | 62.9
CCOC(=O)c1cc2cc(N(S(=O)(=O)C(F)(F)F)S(=O)(=O)C(F)(F)F)ccc2n1CC(=O)O [Example 98, 1-Carboxymethyl-5-(N,N-ditrifluoromethanesulfonyl)amino-1H-indole-2-carboxylic acid ethyl ester] |  |  |  |  |  | > 20 | > 100 | 41.6
CCOC(=O)c1cc2cc(N(S(=O)(=O)C(F)(F)F)S(=O)(=O)C(F)(F)F)ccc2n1CC(=O)OC(C)(C)C [Example 99, 1-tert-Butoxycarbonylmethyl-5-(N,N-ditrifluoromethanesulfonyl)amino-1H-indole-2-carboxylic acid ethyl ester] |  |  |  |  |  | 7 | 4.8 | 27.5
O=C(O)Cn1c(C(=O)O)cc2cc(N(S(=O)(=O)C(F)(F)F)S(=O)(=O)C(F)(F)F)ccc21 [Example 100, 1-Carboxymethyl-5-(N,N-ditrifluoromethanesulfonyl)amino-1H-indole-2-carboxylic acid] |  |  |  |  |  | > 20 | > 100 | > 100
CCOC(=O)c1cc2cc(NS(=O)(=O)C(F)(F)F)ccc2n1CC1CCCCC1 [Example 101, 1-Cyclohexylmethyl-5-trifluoromethanesulfonylamino-1H-indole-2-carboxylic acid ethyl ester] |  |  |  |  |  | 3.4 | 6.6 | 1.4
O=C(O)c1cc2cc(NS(=O)(=O)C(F)(F)F)ccc2n1Cc1ccccc1 [Example 102, 1-Benzyl-5-trifluoromethanesulfonylamino-1H-indole-2-carboxylic acid] |  |  |  |  |  | 4 | 43.1 | 12.2
O=C(O)c1cc2cc(NS(=O)(=O)C(F)(F)F)ccc2n1CC1CCCCC1 [Example 103, 1-Cyclohexylmethyl-5-trifluoromethanesulfonylamino-1H-indole-2-carboxylic acid] |  |  |  |  |  | 17.9 | > 100 | 34.7
